Here are results for eleven compounds from paper PMC4871539 (PLoS ONE, 2016).

The subject of data set [1] is E. coli 35218R. Put plainly: microbe, parasite or virus in culture. To be noted: Escherichia coli.
Data set [2] deals with E. coli ATCC 35218. The format is cell-based, Escherichia coli. To be noted: 30-μg cefoxitin disc.
In data set [3] the test system is E. coli 35218R. The format is cell-based, Escherichia coli. To be noted: 30-μg cefoxitin disc.
For data set [4] the following is noted: mouse, in vivo; cited from earlier work.
The conditions of data set [5]: mouse, in vivo.

For `C[C@H]1[C@H](NC(=O)/C(=N\OC(C)(C)C(=O)O)c2csc(N)n2)C(=O)N1S(=O)(=O)O` [Aztreonam], the MIC in data set [1] is at most 1 µg/mL. On the same count and under the same terms, for `CO/N=C(\C(=O)N[C@@H]1C(=O)N2C(C(=O)[O-])=C(C[N+]3(C)CCCC3)CS[C@H]12)c1csc(N)n1` [Cefepime] the value was at most 1 µg/mL. Consider `CO[C@@]1(NC(=O)Cc2cccs2)C(=O)N2C(C(=O)O)=C(COC(N)=O)CS[C@@H]21` [Cefoxitin], for which the “inhibition zone (mean ± SD)” value in data set [2] was determined as 27.2 ± 0.1 mm; in data set [3], 27.9 ± 0.1 mm. Also, in data set [1], the MIC is at most 4 µg/mL. In data set [1], `CC(C)(O/N=C(\C(=O)N[C@@H]1C(=O)N2C(C(=O)[O-])=C(C[n+]3ccccc3)CS[C@H]12)c1csc(N)n1)C(=O)O` [Ceftazidime] displayed an MIC of at most 1 µg/mL. `CO/N=C(\C(=O)N[C@@H]1C(=O)N2C(C(=O)O)=C(CSc3nc(=O)c(=O)[nH]n3C)CS[C@H]12)c1csc(N)n1` [Ceftriaxone]: the MIC in data set [1] is at most 1 µg/mL. With `C[C@@H](O)[C@H]1C(=O)N2C(C(=O)O)=C(S[C@@H]3CN[C@H](C(=O)Nc4cccc(C(=O)O)c4)C3)[C@H](C)[C@H]12` [Ertapenem], the MIC in data set [1] was at most 0.5 µg/mL. Same read-out and setting: under `C[C@@H](O)[C@H]1C(=O)N2C(C(=O)O)=C(SCCN=CN)C[C@H]12` [Imipenem] stands at most 1 µg/mL; under `C[C@@H](O)[C@H]1C(=O)N2C(C(=O)O)=C(S[C@@H]3CN[C@H](C(=O)N(C)C)C3)[C@H](C)[C@H]12` [Meropenem], at most 0.25 µg/mL. For the compound `CN[C@H](CC(C)C)C(=O)N[C@H]1C(=O)N[C@@H](CC(N)=O)C(=O)N[C@H]2C(=O)N[C@H]3C(=O)N[C@H](C(=O)N[C@H](C(=O)O)c4cc(O)cc(O)c4-c4cc3ccc4O)[C@H](O)c3ccc(c(Cl)c3)Oc3cc2cc(c3O[C@@H]2O[C@H](CO)[C@@H](O)[C@H](O)[C@H]2O[C@H]2C[C@](C)(N)[C@H](O)[C@H](C)O2)Oc2ccc(cc2Cl)[C@H]1O` [vancomycin], in data set [4], the elimination half-life was about 30 min. Consider piperacillin-tazobactam [Farmalogica], for which the “bioequivalence test versus innovator” value in data set [5] is listed as “passed”. Regarding piperacillin-tazobactam [Procaps], the “bioequivalence test versus innovator” value in data set [5] is “passed”.
